These are literature values, as cited in publication PMC2650103 (Journal of medicinal chemistry, 2008).

The data set relates to cowpox, vaccinia or ectromelia virus. As to conditions: mouse, in vivo, po; cited from earlier work.

In the case of `O=C(NN1C(=O)C2C3C=CC(C4CC34)C2C1=O)c1ccc(C(F)(F)F)cc1` (stereo not shown) [Compound 30, 4-trifluoromethyl-N-(3,3a,4,4a,5,5a,6,6a-octahydro-1,3-dioxo-4,6-ethenocycloprop[f]isoindol-2(1H)-yl)-benzamide], the “Protection against viral spread in mice” value was “effective in protecting against viral spread”.
